Experiments:
[1] = tested on: SOCE (store operated calcium entry) in CHO cells; test: Assay of SOCE (store operated calcium entry)-inhibiting action; format: cell-based, Chinese hamster; settings: Cricetulus griseus, CHO, CHO cells, thapsigargin, read-out: SOCE level (percentage of inhibition); for inhibition at 10 µM: test compound 10 μmol; for inhibition at 30 µM: test compound 30 μmol; for inhibition at 100 µM: test compound 100 μmol
How it was run: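 CHO cells in calcium-free BSS received compound, then 1 μM thapsigargin 2 min later to deplete stores; after 9 min, 2 mM calcium chloride (final) added. Percent inhibition of the rise in intracellular calcium determined at various compound concentrations.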

[2] = tested on: IICR (IP3 induced calcium release) in CHO cells; test: Assay of IICR (IP3 induced calcium release)-inhibiting action; format: cell-based, Chinese hamster; settings: Cricetulus griseus, CHO, CHO cells, 10 μM ATP, read-out: IICR level (percentage of inhibition); for inhibition at 10 µM: test compound 10 μmol; for inhibition at 30 µM: test compound 30 μmol; for inhibition at 100 µM: test compound 100 μmol
How it was run: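 CHO cell medium replaced with calcium-containing BSS; compound added 1 min later, then 10 μM ATP after a further 2 min. Percent inhibition of the ATP-evoked rise in intracellular calcium determined at each compound concentration.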

SMILES | inhibition at 10 µM [1] [%] | inhibition at 30 µM [1] [%] | inhibition at 100 µM [1] [%] | inhibition at 10 µM [2] [%] | inhibition at 30 µM [2] [%] | inhibition at 100 µM [2] [%]
Cc1nc(C)c(C(=O)CCN(Cc2ccccc2)C(C)C)s1 [Example 219, 2-(N-benzylisopropyl)aminoethyl-5-(2,4-dimethylthiazolyl)ketone] | 0 | 0 | 0 | 20 | 90 | 100
Cc1nc(C)c(C(=O)CCNCCNCCO)s1 [Example 220, 2-(N-2-hydroxyaminoethyl)aminoethyl-5-(2,4-dimethylthiazolyl)ketone] | 0 | 0 | 0 | 0 | 40 | 40
Cc1cc(C(=O)CCN(Cc2ccccc2)C(C)C)c(C)o1 [Example 221, 2-(N-benzylisopropyl)aminoethyl-3-(2,5-dimethylfuryl)ketone] | 0 | 0 | 0 | 0 | 0 | 0
CC(C)N(CCC(=O)c1ccsc1)Cc1ccccc1 [Example 222, 2-(N-isopropylbenzyl)aminoethyl-3-thiophenylketone] | 0 | 0 | 10 | 0 | 30 | 80
O=C(CCNCCc1ccccc1)c1ccsc1 [Example 223, 2-(N-phenethyl)aminoethyl-3-thiophenylketone] | 0 | 10 | 20 | 0 | 0 | 0
CC(C)N(CCC(=O)n1ccnc1)Cc1ccccc1 [Example 224, 2-(N-isopropylbenzyl)aminoethyl-1-imidazolylketone] | 0 | 0 | 20 | 20 | 20 | 0
Cc1cc(C(=O)CCN(Cc2ccccc2)C(C)C)oc1C [Example 225, 2-(N-isopropylbenzyl)aminoethyl-4,5-dimethyl-2-furylketone] | 10 | 30 | 70 | 20 | 30 | 90
CCN(CCO)CCC(=O)c1cc(C)c(C)o1 [Example 226, 2-(N-2-hydroxyethylethyl)aminoethyl-4,5-dimethyl-2-furylketone] | 0 | 0 | 0 | 0 | 0 | 50
Cc1cc(C(=O)CCN(CCO)Cc2ccccc2)oc1C [Example 227, 2-(N-2-hydroxyethylbenzyl)aminoethyl-4,5-dimethyl-2-furylketone] | 0 | 0 | 0 | 20 | 0 | 20
CCN(CCO)CCC(=O)c1cc(C)sc1C [Example 228, 2-(N-2-hydroxyethylethyl)aminoethyl-2,5-dimethyl-3-thiophenylketone] | 0 | 0 | 20 | 20 | 0 | 20
Cc1cc(C(=O)CCN(CCO)CCO)c(C)s1 [Example 229, 2-(N,N-bis-2-hydroxyethyl)aminoethyl-2,5-dimethyl-3-thiophenylketone] | 0 | 0 | 0 | 0 | 0 | 0
Cc1cc(C(=O)CCN(CCO)C(C)C)c(C)s1 [Example 230, 2-(N-2-hydroxyethylisopropyl)aminoethyl-2,5-dimethyl-3-thiophenylketone] | 0 | 0 | 0 | 0 | 0 | 20
CC(C)(C)N(CCC(=O)c1cccnc1)Cc1ccccc1 [Example 231, 2-(N-benzyl-t-butyl)aminoethyl-3-pyridylketone] | 0 | 0 | 0 | 20 | 90 | 100
CC(C)(C)N(CCO)CCC(=O)c1cccnc1 [Example 232, 2-(N-t-butyl-2-hydroxyethyl)aminoethyl-3-pyridylketone] | 0 | 0 | 0 | 0 | 10 | 10
CN(CCC(=O)c1ccco1)Cc1ccccc1 [Example 233, 2-(N-benzylmethyl)aminoethyl-2-furylketone] | 0 | 0 | 10 | 30 | 70 | 80
CCCCN(CCO)CCC(=O)c1ccco1 [Example 234, 2-(N-2-hydroxyethylbutyl)aminoethyl-2-furylketone] | 0 | 0 | 10 | 0 | 70 | 80
CN(CCO)CCC(=O)c1ccco1 [Example 235, 2-(N-2-hydroxyethylmethyl)aminoethyl-2-furylketone] | 0 | 0 | 0 | 0 | 90 | 80
CN(CCC(=O)c1ccsc1)Cc1ccccc1 [Example 236, 2-(N-benzylmethyl)aminoethyl-3-thiophenylketone] | 0 | 0 | 20 | 10 | 10 | 80
CC(C)(C)N(CCC(=O)c1ccsc1)Cc1ccccc1 [Example 238, 2-(N-benzyl-t-butyl)aminoethyl-3-thiophenylketone] | 0 | 0 | 0 | 10 | 0 | 0
CCN(CCC(=O)c1ccc(C)o1)Cc1ccccc1 [Example 239, 2-(N-benzylethyl)aminoethyl-5-methyl-2-furylketone] | 0 | 0 | 10 | 0 | 50 | 80
Cc1ccc(C(=O)CCN(CCO)C(C)(C)C)o1 [Example 240, 2-(N-2-hydroxyethyl-t-butyl)aminoethyl-5-methyl-2-furylketone] | 0 | 0 | 0 | 10 | 30 | 50
Cc1ccc(C(=O)CCN(C)Cc2ccccc2)o1 [Example 241, 2-(N-benzylmethyl)aminoethyl-5-methyl-2-furylketone] | 0 | 0 | 10 | 0 | 0 | 70
CCN(CCC(=O)c1ccccn1)Cc1ccccc1 [Example 242, 2-(N-benzylethyl)aminoethyl-2-pyridylketone] | 0 | 0 | 0 | 30 | 80 | 90
O=C(CCN(CCO)CCO)c1ccccn1 [Example 243, 2-(N-bis-2-hydroxyethyl)aminoethyl-2-pyridylketone] | 0 | 0 | 0 | 0 | 0 | 50
CC(C)(C)N(CCO)CCC(=O)c1ccccn1 [Example 244, 2-(N-t-butyl-2-hydroxyethyl)aminoethyl-2-pyridylketone] | 0 | 0 | 0 | 0 | 0 | 0
O=C(CCN(CCO)Cc1ccccc1)c1cccs1 [Example 245, 2-(N-benzyl-2-hydroxyethyl)aminoethyl-2-thiophenylketone] | 0 | 0 | 0 | 0 | 0 | 0
CC(C)(C)N(CCO)CCC(=O)c1cccs1 [Example 246, 2-(N-t-butyl-2-hydroxyethyl)aminoethyl-2-thiophenylketone] | 0 | 0 | 0 | 10 | 0 | 0
